# Measured values taken from patent US20030134342A1, “Binding-specific peptides, binding-specific carrier molecules, and uses thereof” (priority 2001, published 2003).
# Where a SMILES comes first, the peptide text is derived from it.
# What was measured:
# [1] = tested on: human myeloid leukemia cell line HL60; experiment: Proliferation of HL60 cells: cell number after 7 days culture; type: cell-based; conditions: for No. Cells: HL60, after 7 days; for Percent relative to Controls: HL60 cell number after 7 days
# Description: The number of cells after 7 days culture growth were counted in the presence or absence of the different molecules. Results are shown for the free G5 12-8B peptide alone (artificially synthesized), phage displaying G5 12-8B, the free A2 11-24 peptide, phage displaying the A2 11-24 peptide, a combination of the free G5 and A2 peptides, a combination of the free pure with phage displaying the peptides, and several concentrations of peptide.
# (§1) Such inhibition is not the result of the killing of the cells. The data are graphed in the Figures.
# The control number of cells per milliliter (2.6) is an average of results from dual controls (2.6×10^6).
# (§2) DMSO, dimethylsulfoxide, is a chemical that induces HL60 cellular differentiation.
# [2] = Viability of HL60 cells, trypan blue; type: cell-based; conditions: human
# Experimental: (§3) Studies were conducted of the effects of the free G5 12-8B (artificially synthesized), phage displaying G5 12-8B, the free A2 11-24 peptide, phage displaying the A2 11-24 peptide, a combination of the free G5 and A2 peptides, a combination of pure peptides plus phage displaying the peptides, and several concentrations of peptide.
# [3] = tested on: human myeloid leukemia cell line HL60; experiment: Differentiation of HL60 cells; type: cell-based
# Description: FIG. 1 illustrates the effects of several peptides on the differentiation of the human myeloid leukemia cell line HL60.
# as §1, §2
# The level of differentiation of the HL60 cells after 5 or 7 days growth in the presence or absence of the various phage and peptides combinations described above are shown in FIG. 1. The high level of differentiation that has been achieved is notable from the graph in FIG. 1. The levels of differentiation in the presence of peptide exceed that produced by the presence of phage alone.
# [4] = tested on: human myeloid leukemia cell line HL60; experiment: Differentiation of HL60 cells; type: cell-based; remark: listed apart in the source
# [5] = tested on: human myeloid leukemia cell line HL60; experiment: Viability of HL60 cells, trypan blue; type: cell-based
# Experimental: as §3
# CML cells = experiment: ELISA binding of phage displaying peptides to fixed cells: CML cells; design: species or system human; conditions: in words
# Experimental: (§4) Preliminary experiments were performed to identify specific peptides by using cells from patients diagnosed with CLL, CML, and AML. The screening was performed by incubating the cells with the phage-peptides from the library. This incubation allows interaction between the peptide and the cell. The binding step was followed by several washes to eliminate free phage. Phage bound on the cell surface was eluted.
# (§5) After the last round of binding with one cell type, the eluted phage was plated on an agar plate with the appropriate selection antibiotics. Each individual colony, corresponding to one individual peptide sequence, was amplified in a 96-well plate. After purification, these peptides were tested for their ability to bind to the cells in a microtiter plate by ELISA.
# (§6) Each peptide was dispensed in a 96-well plate, containing cells previously fixed. Each colony was tested in a triplicate assay with the appropriate controls. After incubation of cells with an individual clone, the wells were washed to eliminate free phage. The bound phages were detected by using a monoclonal anti-M13 antibody/horseradish peroxidase (HRP) conjugate. After addition of the HRP substrate, the intensity of the coloration was measured by spectrophotometry. The light absorbance values (optical density values, O.D. values) are proportional to the number of phage bound to the cells.
# (§7) The binding to various cell types were examined to evaluate the cellular specificity of the phage clones. For example, the clones from phage eluted from CLL patient cells were assayed for their ability to bind cells from an AML patient. Cells from normal donors (non-leukemic) were also evaluated to ascertain leukemia cell specificity.
# (§8) Peripheral blood and bone marrow samples were collected from patients after informed consent. The samples were collected in tubes containing sodium citrate. Mononuclear cells were isolated by Ficoll-Hypaque density gradient separation and collection of the cells at a density of 1.077 g/mL.
# (§9) The wells of a 96-well plate were pre-treated with 100 μL of poly-L-lysine (0.01 mg/mL in phosphate-buffered saline, 120 mM NaCl, 2.7 mM KCl, 10 mM phosphate buffer, “PBS”) for 2-16 hours at room temperature. After draining the poly-L-lysine from the wells, the excess poly-L-lysine was removed from the wells by flicking. The cells were washed with PBS, then suspended in PBS and diluted to a final concentration of […]. The cell suspension (200 μL; 250,000 cells) were added to each well needed for the assay.
# (§10) The plates were centrifuged at 500 g for about 5 minutes in a microplate carrying centrifuge when available. The cells were fixed to the wells through the addition of glutaraldehyde (100 μL of 0.5%) and incubating at room temperature for about an hour. The glutaraldehyde was removed and the cell-coated wells washed once with PBS. Alternatively, the cells were permitted to settle to the well bottoms for about 4 hours at 37° C., and the glutaraldehyde fixative was added after removing the PBS.
# (§11) A glycine solution (200 μl of 0.1 M glycine in PBS) containing bovine serum albumin (BSA; 1%) was added to the wells and permitted to incubate for 30 minutes to block excess glutaraldehyde. The glycine was removed, and the cell-coated wells washed once with PBS. A sodium pyrophosphate solution (200 μL of 0.3 mg/mL NaPPi) was added to the wells and incubated for an hour at room temperature to neutralize lysine charges. The pyrophosphate solution was removed and the wells washed once with PBS. Multiwell microtiter plates with cell-coated wells were stored at 4° C. with fresh PBS solution in the coated wells.
# (§12) The cells to be studied for binding were suspended in PBS and adsorbed onto to a poly-L-lysine pretreated 96-well plate and kept at 4° C. The PBS was removed from the wells and an H2O2 solution in PBS (6% H2O2 in 200 μL/well) was added. […]
# AML cells = experiment: ELISA binding of phage displaying peptides to fixed cells: AML cells; design: species or system human; conditions: in words
# Experimental: as §4, §5, §6, §7, §8, §9, §10, §11, §12
# CD34+ cells = experiment: ELISA binding of phage displaying peptides to fixed cells: CD34+ cells; design: species or system human; conditions: in words
# Experimental: as §4, §5
# as §6, with “Each colony was tested in a triplicate assay with the appropriate controls. After incubation of cells with an individual clone, the wells were washed to eliminate free phage.” left out
# (§13) The binding to various cell types were examined to evaluate the cellular specificity of the phage clones. […] Cells from normal donors (non-leukemic) were also evaluated to ascertain leukemia cell specificity. […]
# CLL cells = experiment: ELISA binding of phage displaying peptides to fixed cells: CLL cells; design: species or system human; conditions: in words
# Experimental: as §4, §5, §6, §7, §8, §9, §10, §11, §12
# AML bone marrow cells = experiment: Methylcellulose culture of AML bone marrow cells with peptides: proliferation (colonies) and differentiation (morphology); type: cell-based, human; conditions: patient numbers
# Experimental: The effect of various peptides were analyzed for their biological activity on cells from a patient with acute myelogenous leukemia. The AML cells were cultured into a semi-solid medium of methylcellulose in order to determine the cloning efficiency and the differentiation of the cells. The various peptides were introduced into the semi-solid cell culture at a concentration of 10^−4 M (0.1 mM) peptide. After 14 days continuous incubation of the cell cultures, the morphology of the cells were analyzed. The data are shown in FIG. 7 for the cultures and show the percentage of immature cells in the culture (solid black), the percentage of small myeloblasts (solid white), the percentage of young cells (dark gray), and the relative percentage of monocytes to […] (light gray). The data regarding the biological response of AML bone marrow cells in the presence of the various peptides is shown in the table below.
# normal bone marrow cells = experiment: ELISA binding of phage displaying peptides to fixed cells: normal bone marrow; design: species or system human; conditions: in words
# Experimental: as §4, §5
# as §6, with “Each colony was tested in a triplicate assay with the appropriate controls. After incubation of cells with an individual clone, the wells were washed to eliminate free phage.” left out
# as §13
# cord blood cells = experiment: ELISA binding of phage displaying peptides to fixed cells: cord blood cells; design: species or system human; conditions: in words
# Experimental: as §4, §5
# as §6, with “Each colony was tested in a triplicate assay with the appropriate controls. After incubation of cells with an individual clone, the wells were washed to eliminate free phage.” left out
# as §13
compound,measurement,setting,value
"C[S+](C)[O-] [DMSO, dimethylsulfoxide, reference compound]",No. Cells,[1]; concentration not given,0.9 10^6 cell/mL
same,Percent relative to Controls,[1]; concentration not given,30%
same,viability at 5 days,[2],98%
same,viability at 7 days,[2],97%
same,viability at 9 days,[2],82%
same,Day 5 % Diff.,[3]; concentration not given,off scale
same,Day 7 % Diff.,[3]; concentration not given,off scale
same,Day 9 % Diff.,[4]; concentration not given,off scale
NCCCC[C@H](NC(=O)CNC(=O)[C@H](CO)NC(=O)[C@H](Cc1c[nH]c2ccccc12)NC(=O)[C@H](CCC(N)=O)NC(=O)[C@H](CCC(N)=O)NC(=O)[C@H](Cc1ccccc1)NC(=O)[C@H](CCC(=O)O)NC(=O)[C@@H](N)CS)C(=O)N[C@@H](CS)C(=O)O [G5 12-8B peptide] (H-CEFQQWSGKC-OH; N-terminus and C-terminus assumed),No. Cells,[1]; free peptide at 10^−4 M,1.2 10^6 cell/mL
same,Percent relative to Controls,[1]; free peptide at 10^−4 M,48%
same,Day 5 Viability,[5]; 5 day,98%
same,Day 7 Viability,[5]; 7 day,96%
same,Day 9 Viability,[5]; 9 day,90%
same,Day 5 % Diff.,[3]; free peptide at 10^−4 M,22%
same,"Day 5 % Diff., figure in parentheses",[3]; free peptide at 10^−4 M,183%
same,Day 7 % Diff.,[3]; free peptide at 10^−4 M,31%
same,"Day 7 % Diff., figure in parentheses",[3]; free peptide at 10^−4 M,194%
same,Day 9 % Diff.,[4]; free peptide at 10^−4 M,22%
CIEETARKGC [A2 11-24],binding of phage displaying the peptide to CML cells,CML cells,bind
same,binding of phage displaying the peptide to AML cells,AML cells,bind
same,binding of phage displaying the peptide to CD34+ cells,CD34+ cells,bind
same,binding of phage displaying the peptide to CLL cells,CLL cells,not
same,Activation of Differentiation,AML bone marrow cells,3
KRGIHPES [B3 9-1-01 no Cys],binding of phage displaying the peptide to AML cells,AML cells,not
same,binding of phage displaying the peptide to normal bone marrow,normal bone marrow cells,bind
VSEDIYDA [E11 12-8B],binding of phage displaying the peptide to CML cells,CML cells,bind
same,binding of phage displaying the peptide to AML cells,AML cells,bind
same,binding of phage displaying the peptide to cord blood cells,cord blood cells,bind
